Among the data in patent US20260365670A1, “EGFR INHIBITORS AND USES THEREOF” (DIZAL (JIANGSU) PHARMACEUTICAL CO., LTD., priority 2022, published 2026) are GI50 and IC50 values, retold here.

Where two headings read alike, the source gives them in different places. Where only a bound is given, the exact number is not on record here.

One assay deals with PC-9. In words: Cell proliferation assay, PC-9 cells (CellTiter-Glo, 72 hours). The assay is classed as cell-based. As to conditions: Homo sapiens, PC-9, 72 h, PC9 cells, read-out: GI50 PC9. The method, boiled down: (§1)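 Seed Ba/F3 at 5000 cells/well and PC-9 at 500 cells/well (10% FBS RPMI1640); incubate overnight; add compound dilution series; read a G0 plate; incubate; read G3; GI50 from best-fit curve.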
Background: Cellular ATP, detected with luciferase, serves as a proxy for viable cell number.

The target of a further assay is T1, EGFR Exon19Del (Homo sapiens, UniProt P00533, DEL746-750).
T1 construct: purchased Carna Bio
T1 sequence (P00533 with tags, fused parts or gaps DEL746-750 limits assumed): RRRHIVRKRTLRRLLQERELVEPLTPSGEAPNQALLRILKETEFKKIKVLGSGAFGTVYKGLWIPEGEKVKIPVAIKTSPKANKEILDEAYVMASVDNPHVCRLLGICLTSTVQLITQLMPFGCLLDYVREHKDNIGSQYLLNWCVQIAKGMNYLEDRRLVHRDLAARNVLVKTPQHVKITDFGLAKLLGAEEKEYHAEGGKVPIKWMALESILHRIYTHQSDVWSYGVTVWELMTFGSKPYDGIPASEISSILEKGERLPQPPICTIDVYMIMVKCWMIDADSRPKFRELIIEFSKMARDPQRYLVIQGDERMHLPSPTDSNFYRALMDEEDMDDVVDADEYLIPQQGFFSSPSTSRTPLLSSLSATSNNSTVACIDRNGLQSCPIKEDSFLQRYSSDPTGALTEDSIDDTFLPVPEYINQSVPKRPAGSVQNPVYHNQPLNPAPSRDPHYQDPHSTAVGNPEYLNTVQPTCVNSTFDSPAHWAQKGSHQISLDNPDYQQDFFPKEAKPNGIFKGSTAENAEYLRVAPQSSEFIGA
Kind of assay: Inhibition of EGFR Exon19Del biochemical enzymatic activity (HTRF). As to conditions: EGFR Exon19Del, 1 mM ATP, 1 h at room temperature, read-out: IC50 @Del19. A digest of the protocol:
(§2)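 HTRF kinase assay: each EGFR enzyme phosphorylated 1 μM biotinylated TK substrate with 1 mM ATP in buffer containing 5 mM MgCl2, 1 mM MnCl2, 0.01% CHAPS, 1 mM DTT, 0.5% DMSO. After 1 h at room temperature, EDTA detection mix stopped the reaction. IC50 came from a four-parameter logistic fit of the 665/615 nm ratio.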
(TR-FRET usually uses a lanthanide donor and a delayed reading to cut background.)

Another assay deals with T2, EGFR wild type (Homo sapiens, UniProt P00533).
T2 construct: purchased Carna Bio
In words: Inhibition of EGFR wild type biochemical enzymatic activity (HTRF). As to conditions: EGFR wild type, 1 mM ATP, 1 h at room temperature, read-out: IC50 @WT. A digest of the protocol:
as §2

A further assay addresses T3, EGFR[T790M/C797S/L858R] (Homo sapiens, UniProt P00533, C797S/L858R/T790M).
T3 construct: purchased Carna Bio
Kind of assay: Inhibition of EGFR[T790M/C797S/L858R] biochemical enzymatic activity (HTRF). As to conditions: EGFR[T790M/C797S/L858R], 1 mM ATP, 1 h at room temperature, read-out: IC50 @T790M- C797S - L858R. A digest of the protocol: as §2

In another assay the target is T4, EGFR L858R/T790M (Homo sapiens, UniProt P00533, L858R/T790M).
T4 construct: purchased Carna Bio
T4 sequence (P00533 25-1210 T790M/L858R): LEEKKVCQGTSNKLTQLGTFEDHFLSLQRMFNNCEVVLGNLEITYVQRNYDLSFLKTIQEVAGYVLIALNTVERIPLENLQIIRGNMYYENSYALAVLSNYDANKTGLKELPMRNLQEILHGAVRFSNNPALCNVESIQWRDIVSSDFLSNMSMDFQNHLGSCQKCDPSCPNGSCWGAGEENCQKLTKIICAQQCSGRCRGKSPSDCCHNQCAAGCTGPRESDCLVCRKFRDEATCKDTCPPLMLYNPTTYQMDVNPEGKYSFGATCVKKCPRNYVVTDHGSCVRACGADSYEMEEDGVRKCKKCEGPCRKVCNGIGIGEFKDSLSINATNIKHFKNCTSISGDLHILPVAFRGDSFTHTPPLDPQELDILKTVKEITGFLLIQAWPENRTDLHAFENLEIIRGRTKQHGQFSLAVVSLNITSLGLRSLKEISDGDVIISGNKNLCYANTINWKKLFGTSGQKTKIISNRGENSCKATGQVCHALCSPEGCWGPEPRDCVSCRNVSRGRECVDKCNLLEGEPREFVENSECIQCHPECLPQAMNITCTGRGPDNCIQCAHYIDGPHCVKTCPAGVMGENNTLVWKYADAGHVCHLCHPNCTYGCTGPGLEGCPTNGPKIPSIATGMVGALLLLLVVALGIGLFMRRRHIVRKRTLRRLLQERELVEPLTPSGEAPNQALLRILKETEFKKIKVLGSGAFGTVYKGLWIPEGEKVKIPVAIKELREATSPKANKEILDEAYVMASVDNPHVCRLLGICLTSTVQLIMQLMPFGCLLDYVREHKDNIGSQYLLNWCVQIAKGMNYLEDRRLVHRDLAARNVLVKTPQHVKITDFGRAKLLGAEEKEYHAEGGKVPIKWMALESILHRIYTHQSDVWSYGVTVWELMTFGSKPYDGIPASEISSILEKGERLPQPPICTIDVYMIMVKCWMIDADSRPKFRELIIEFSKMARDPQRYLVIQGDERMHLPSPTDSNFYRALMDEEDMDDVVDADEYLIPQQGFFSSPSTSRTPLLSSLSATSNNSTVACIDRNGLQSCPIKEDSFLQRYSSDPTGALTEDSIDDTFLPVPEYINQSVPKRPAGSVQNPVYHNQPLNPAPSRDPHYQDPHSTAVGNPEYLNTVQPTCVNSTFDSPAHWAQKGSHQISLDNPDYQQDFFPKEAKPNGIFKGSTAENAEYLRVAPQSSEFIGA
Kind of assay: Inhibition of EGFR L858R/T790M biochemical enzymatic activity (HTRF). As to conditions: EGFR L858R/T790M, 1 mM ATP, 1 h at room temperature, read-out: IC50 @L858R-T790M. A digest of the protocol: as §2

For assay [1], the target named is T5, EGFR[T790M/C797S/d746-750] (Homo sapiens, UniProt P00533, C797S/DEL746-750/T790M).
T5 construct: purchased Carna Bio
T5 sequence (P00533 with tags, fused parts or gaps DEL746-750/T790M/C797S limits assumed): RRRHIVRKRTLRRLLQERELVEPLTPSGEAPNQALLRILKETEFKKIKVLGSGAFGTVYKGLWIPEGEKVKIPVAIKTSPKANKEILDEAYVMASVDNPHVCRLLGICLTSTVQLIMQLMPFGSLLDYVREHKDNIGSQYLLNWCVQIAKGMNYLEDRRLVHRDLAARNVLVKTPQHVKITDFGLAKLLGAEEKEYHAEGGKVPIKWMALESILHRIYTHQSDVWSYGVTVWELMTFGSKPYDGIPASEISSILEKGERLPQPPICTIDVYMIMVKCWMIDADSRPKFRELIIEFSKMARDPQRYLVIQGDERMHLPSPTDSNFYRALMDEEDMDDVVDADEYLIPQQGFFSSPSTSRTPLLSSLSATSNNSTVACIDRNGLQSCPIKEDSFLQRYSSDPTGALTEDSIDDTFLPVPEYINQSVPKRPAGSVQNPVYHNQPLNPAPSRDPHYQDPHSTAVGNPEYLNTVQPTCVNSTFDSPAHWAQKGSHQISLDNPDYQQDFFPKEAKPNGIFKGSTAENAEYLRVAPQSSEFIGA
In words: Inhibition of EGFR[T790M/C797S/d746-750] biochemical enzymatic activity (HTRF). As to conditions: EGFR[T790M/C797S/d746-750], 1 mM ATP, 1 h at room temperature, read-out: IC50 @T790M - C797S - Del19. A digest of the protocol: as §2

The target in a further assay is T6, EGFR Exon19Del/T790M (Homo sapiens, UniProt P00533, DEL746-750/T790M).
T6 construct: purchased Carna Bio
T6 sequence (P00533 with tags, fused parts or gaps DEL746-750/T790M limits assumed): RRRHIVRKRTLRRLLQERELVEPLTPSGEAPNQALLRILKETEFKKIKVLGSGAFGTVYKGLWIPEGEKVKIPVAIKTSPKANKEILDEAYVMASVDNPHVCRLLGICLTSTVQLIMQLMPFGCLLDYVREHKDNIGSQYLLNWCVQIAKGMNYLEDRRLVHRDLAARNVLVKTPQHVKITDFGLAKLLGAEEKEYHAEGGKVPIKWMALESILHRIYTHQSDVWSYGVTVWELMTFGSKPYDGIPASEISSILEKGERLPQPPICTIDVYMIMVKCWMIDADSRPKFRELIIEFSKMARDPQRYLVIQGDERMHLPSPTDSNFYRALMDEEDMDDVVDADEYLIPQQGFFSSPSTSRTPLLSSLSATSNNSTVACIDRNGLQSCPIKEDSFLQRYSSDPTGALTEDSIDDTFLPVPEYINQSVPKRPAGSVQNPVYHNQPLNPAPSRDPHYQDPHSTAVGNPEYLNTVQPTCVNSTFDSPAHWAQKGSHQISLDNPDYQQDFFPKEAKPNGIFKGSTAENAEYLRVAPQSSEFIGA
In words: Inhibition of EGFR Exon19Del/T790M biochemical enzymatic activity (HTRF). As to conditions: EGFR Exon19Del/T790M, 1 mM ATP, 1 h at room temperature, read-out: IC50 @Del19-T790M. The method, boiled down:
as §2

For assay [2], the system named is Ba/F3 cells expressing EGFR mutations. In words: Cell proliferation assay, Ba/F3 cells expressing EGFR mutations (CellTiter-Glo, 72 hours). It counts as cell-based. As to conditions: Mus musculus, BaF3, 72 h. The method, boiled down:
as §1

The target of the next assay is T7, EGFR (d746-750 C797S) (Homo sapiens, UniProt P00533, C797S/DEL746-750).
T7 construct: purchased signalchem
T7 sequence (P00533 with tags, fused parts or gaps DEL746-750/C797S limits assumed): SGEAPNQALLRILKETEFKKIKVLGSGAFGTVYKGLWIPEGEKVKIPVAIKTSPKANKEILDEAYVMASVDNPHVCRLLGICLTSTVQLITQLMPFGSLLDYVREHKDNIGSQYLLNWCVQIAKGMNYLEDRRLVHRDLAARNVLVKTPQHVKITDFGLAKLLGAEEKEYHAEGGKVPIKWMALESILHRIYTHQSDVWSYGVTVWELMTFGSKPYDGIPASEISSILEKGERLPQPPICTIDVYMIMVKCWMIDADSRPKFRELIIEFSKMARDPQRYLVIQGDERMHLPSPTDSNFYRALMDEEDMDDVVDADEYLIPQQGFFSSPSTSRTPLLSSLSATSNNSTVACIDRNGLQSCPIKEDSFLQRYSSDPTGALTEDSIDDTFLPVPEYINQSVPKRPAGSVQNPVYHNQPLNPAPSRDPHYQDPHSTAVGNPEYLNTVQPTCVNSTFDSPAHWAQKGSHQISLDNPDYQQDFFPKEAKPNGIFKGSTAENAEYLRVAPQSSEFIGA
Kind of assay: Inhibition of EGFR (d746-750 C797S) biochemical enzymatic activity (HTRF). As to conditions: EGFR (d746-750 C797S), 1 mM ATP, 1 h at room temperature, read-out: IC50 @Del19-C797S. A digest of the protocol: as §2

A further assay addresses T8, EGFR (C797S L858R) (Homo sapiens, UniProt P00533, C797S/L858R).
T8 construct: purchased signalchem
In words: Inhibition of EGFR (C797S L858R) biochemical enzymatic activity (HTRF). As to conditions: EGFR (C797S L858R), 1 mM ATP, 1 h at room temperature, read-out: IC50 @L858-C797S. A digest of the protocol:
as §2

The test system of another assay is A-431. Kind of assay: Cell proliferation assay, A-431 cells (GI50, Table 6). The assay is classed as cell-based. As to conditions: Homo sapiens, A-431, A-431 cells.
Another assay has as its target T9, EGFR L858R (Homo sapiens, UniProt P00533, L858R).
T9 construct: purchased Carna Bio
In words: Inhibition of EGFR L858R biochemical enzymatic activity (HTRF). As to conditions: 1 mM ATP, 1 h at room temperature, read-out: IC50 @L858R. A digest of the protocol:
as §2

[3] abbreviates: BaF3 cells, EGFR DEL19 - C797S, read-out: GI50 DEL19 - C797S/BaF3.
The mark [4] stands for this setting: BaF3 cells, EGFR DEL19 - T790-C797S, read-out: GI50 DEL19 - T790-C797S/BaF3.
Setting [5] is: BaF3 cells, EGFR L858R - C797S, read-out: GI50 L858R - C797S/BaF3.
Where [6] appears, read: BaF3 cells, EGFR L858R - T790-C797S, read-out: GI50 L858R - T790-C797S/BaF3.
Where [7] appears, read: BaF3 cells, EGFR L858R - T790M, read-out: GI50 L858R - T790M/BaF3.
The mark [8] stands for this setting: BaF3 cells, EGFR L858R, read-out: GI50 L858R/BaF3.
[9] abbreviates: EGFR DEL19 - T790M, read-out: GI50 DEL19 - T790M.

Broadly, the IC50 is the concentration that gives 50% inhibition.

T9 sequence (P00533 25-1210 L858R): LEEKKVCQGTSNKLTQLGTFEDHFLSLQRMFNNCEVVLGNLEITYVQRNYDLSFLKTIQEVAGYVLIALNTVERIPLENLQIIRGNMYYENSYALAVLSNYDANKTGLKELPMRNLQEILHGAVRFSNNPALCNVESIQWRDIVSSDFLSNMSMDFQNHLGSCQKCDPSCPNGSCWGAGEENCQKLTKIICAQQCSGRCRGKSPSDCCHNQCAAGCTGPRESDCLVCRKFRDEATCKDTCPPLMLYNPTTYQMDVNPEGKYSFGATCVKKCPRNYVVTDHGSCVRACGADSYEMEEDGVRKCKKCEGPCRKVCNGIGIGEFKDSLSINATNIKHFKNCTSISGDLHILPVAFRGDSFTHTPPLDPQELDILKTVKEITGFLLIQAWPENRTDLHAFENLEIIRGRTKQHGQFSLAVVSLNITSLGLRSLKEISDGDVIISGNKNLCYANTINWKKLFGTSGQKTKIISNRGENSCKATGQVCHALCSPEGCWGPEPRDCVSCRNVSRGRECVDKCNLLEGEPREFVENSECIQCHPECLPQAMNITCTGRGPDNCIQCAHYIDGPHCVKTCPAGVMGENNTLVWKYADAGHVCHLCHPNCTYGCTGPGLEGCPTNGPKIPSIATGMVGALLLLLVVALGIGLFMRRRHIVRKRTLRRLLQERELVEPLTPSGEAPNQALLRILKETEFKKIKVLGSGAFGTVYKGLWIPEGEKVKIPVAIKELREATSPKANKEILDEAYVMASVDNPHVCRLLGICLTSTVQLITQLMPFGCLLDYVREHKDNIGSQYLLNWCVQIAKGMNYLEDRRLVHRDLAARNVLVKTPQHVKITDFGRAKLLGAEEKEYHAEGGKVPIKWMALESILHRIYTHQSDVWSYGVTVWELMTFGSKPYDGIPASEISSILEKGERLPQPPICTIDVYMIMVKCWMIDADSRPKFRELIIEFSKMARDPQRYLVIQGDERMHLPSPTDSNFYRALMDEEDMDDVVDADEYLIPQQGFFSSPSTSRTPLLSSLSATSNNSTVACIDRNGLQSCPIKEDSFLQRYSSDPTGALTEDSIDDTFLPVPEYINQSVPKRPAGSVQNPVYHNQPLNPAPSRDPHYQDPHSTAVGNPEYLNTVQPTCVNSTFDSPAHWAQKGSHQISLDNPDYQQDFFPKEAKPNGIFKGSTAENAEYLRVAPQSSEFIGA

For the molecule `Cc1cc2cc(n1)-c1cnn(C)c1OCCN1CC3CCC(CC3)(C1)n1c(nc3ccc(N4CC5CN(C)CC5C4)cc31)NC2=O` (stereo not drawn) [Example B34], the GI50 was found to be 86 nM in the assay on PC-9; 11 nM in [2] (setting [3]); 4 nM in assay [2] (setting [4]); 83 nM in [2] (setting [5]); 9 nM in assay [2] (setting [6]); 17 nM in assay [2] (setting [7]). Also, the values for the GI50 (in [2] (setting [8]); in assay [2] (setting [9]); in the assay on A-431) were 64 nM, 4 nM and 4520 nM, respectively. For the same molecule, the IC50 on EGFR Exon19Del is 39 nM; at EGFR wild type, greater than 5000 nM; on EGFR[T790M/C797S/L858R], 8.4 nM; on EGFR L858R/T790M, 16 nM; in assay [1] it was 5.4 nM; on EGFR Exon19Del/T790M, 12 nM. The IC50 on EGFR (d746-750 C797S) came to 20 nM; at EGFR (C797S L858R), 203 nM; at EGFR L858R, 421 nM.

In the case of `Cc1cc2cc(n1)-c1cnn(C)c1OCCN1CC3CCC(CC3)(C1)n1c(nc3ccc(N4CC5CCN(C)C5C4)cc31)NC2=O` (stereo not drawn) [Example B35], the GI50 was 121 nM in the assay with PC-9; 10 nM in assay [2] (setting [3]); 3 nM in assay [2] (setting [4]); 108 nM in assay [2] (setting [5]); 7 nM in assay [2] (setting [6]); 20 nM in assay [2] (setting [7]). For the same molecule, the results for the GI50 (in assay [2] (setting [8]); in [2] (setting [9]); in the assay with A-431) were 62 nM, 3 nM and 6630 nM, respectively. Also, the IC50 at EGFR Exon19Del is 30 nM; on EGFR wild type, greater than 5000 nM; on EGFR[T790M/C797S/L858R], 5 nM; on EGFR L858R/T790M, 13 nM; in assay [1], 6 nM; at EGFR Exon19Del/T790M, 9 nM. Besides, the IC50 amounted to 14 nM on EGFR (d746-750 C797S), 185 nM at EGFR (C797S L858R) and 378 nM on EGFR L858R.

As to `Cc1cc2cc(n1)-c1cnn(C)c1OCCN1CC3CCC(CC3)(C1)n1c(nc3ccc(N4CCN(C5CC5)CC4)cc31)NC2=O` [Example B36], the GI50 in the assay with PC-9 is 186 nM; in assay [2] (setting [3]), 27 nM; in assay [2] (setting [4]), 8 nM; in assay [2] (setting [5]), 234 nM; in assay [2] (setting [6]), 15 nM; in assay [2] (setting [7]) it was 29 nM. For the same molecule, the values for the GI50 (in assay [2] (setting [8]); in assay [2] (setting [9]); in the assay with A-431) were 200 nM, 10 nM and 3420 nM, respectively. Also, the concentration for half-maximal inhibition (IC50) on EGFR Exon19Del was 24 nM; on EGFR wild type it was greater than 5000 nM; on EGFR[T790M/C797S/L858R], 2.9 nM; at EGFR L858R/T790M, 7.6 nM; in assay [1], 3.7 nM; on EGFR Exon19Del/T790M, 5.8 nM. The half-inhibitory concentration (IC50) amounted to 10 nM on EGFR (d746-750 C797S), 159 nM on EGFR (C797S L858R) and 734 nM on EGFR L858R.

`Cc1cc2cc(n1)-c1cnn(C)c1OCCN1CC3CCC(CC3)(C1)n1c(nc3ccc(N4CCC5(CN(C)C5)C4)cc31)NC2=O` [Example B37]: the GI50 with PC-9 was determined as 106 nM; in assay [2] (setting [3]) it was 12 nM; in assay [2] (setting [4]) it was 5 nM; in assay [2] (setting [5]), 73 nM; in assay [2] (setting [6]) it was 9 nM; in [2] (setting [7]), 28 nM. Further, the GI50 turned out to be 74 nM in assay [2] (setting [8]), 5 nM in [2] (setting [9]) and 5040 nM in the assay on A-431. For the same molecule, the IC50 on EGFR Exon19Del is 19 nM; at EGFR wild type it was greater than 5000 nM; at EGFR[T790M/C797S/L858R], 5.6 nM; at EGFR L858R/T790M, 13 nM; in assay [1], 3.9 nM; at EGFR Exon19Del/T790M it was 9 nM. The concentration for half-maximal inhibition (IC50) on EGFR (d746-750 C797S) was 13 nM; on EGFR (C797S L858R), 99 nM; on EGFR L858R it was 194 nM.

With `Cc1cc2cc(n1)-c1cnn(C)c1OCCN1CC3CCC(CC3)(C1)n1c(nc3ccc(N4CCN(C(C)C)CC4)cc31)NC2=O` [Example B39], the GI50 in the assay on PC-9 came to 178 nM; in assay [2] (setting [3]), 24 nM; in assay [2] (setting [4]) it was 8 nM; in [2] (setting [5]), 101 nM; in assay [2] (setting [6]) it was 4 nM; in assay [2] (setting [7]) it was 18 nM. The GI50 is 167 nM in [2] (setting [8]), 7 nM in [2] (setting [9]) and 7730 nM with A-431. Further, the IC50 on EGFR Exon19Del is 20 nM; at EGFR wild type it was greater than 5000 nM; on EGFR[T790M/C797S/L858R], 4.2 nM; on EGFR L858R/T790M it was 7.7 nM; in assay [1], 3.3 nM; on EGFR Exon19Del/T790M, 6.6 nM. Besides, the IC50 at EGFR (d746-750 C797S) was 9.4 nM; at EGFR (C797S L858R) it was 126 nM; at EGFR L858R, 282 nM.
